Test system: Bmi-1 protein
Assay: Sandwich ELISA Assay (Bmi-1 protein level in HT-1080 cells after compound treatment)
Format: cell-based
Details: Table 1, Bmi-1 sandwich ELISA, read-out: ELISA EC50 value for Bmi-1 protein
Description: Cell Seeding and Compound Treatment (Day 1):
HT-1080 cells were seeded at 8000 cells/well (50 μL) in 96-well tissue culture plates. After the cells became adherent (3-4 hours), 2× diluted stocks of test compounds in 50 μL DMEM containing 1% DMSO (final DMSO concentration was 0.5%) were added and the plates were incubated at 37° C. under 5% CO2 for 40-48 hours.
ELISA Plate First Antibody Preparation (Day 2):
The First Antibody (Millipore Mouse, monoclonal to mouse Bmi-1, clone F6, catalog #05-637) diluted to […] in PBS was added (100 μL) to each well of a Nunc MaxiSorp 96-well ELISA plate. The plate was covered with a plate seal and allowed to stand overnight.
Cell Lysate Preparation (Day 3):
Fresh Lysis buffer (1×) was prepared on the day of the assay as follows: 1 mM EDTA, 150 mM NaCl, 0.5% Triton-X 100, 10 mM NaF, 20 mM B-Glycerophosphate, 1 mM DTT (in PBS, pH 7.2-7.4) and HALT protease inhibitor cocktail (lx) (Pierce #78410).
A standard curve was prepared at the following Bmi-1 concentrations: 8000, 4000, 2000, 1000, 500, 250, 125 and 0 pg/mL. The Bmi-1 Recombinant Protein Standard (Novus Biologicals PCGF4 Recombinant Protein (P01), catalog # H00000648-P01) used to prepare the standard curve was stored at −80° C. On first thaw, the Recombinant Protein Standard was diluted to 10 μg/L in Blocking Buffer (1% BSA in PBS; BSA: Fisher Scientific Catalog #1600-100). Aliquots were taken and refrozen at −80° C. The aliquots may be kept at 4° C. and reused after first thaw, but only within 1-2 weeks. The Recombinant Protein Standard contains a GST-fusion tag that appears at approximately 70 Kda on Western Blot.
The prepared ELISA plate was washed 3× with Wash Buffer (0.05% Tween-20 in PBS). The final wash was removed from the plate and the plate was blotted dry. Blocking Buffer (300 μL) (1% BSA in PBS) was added to each well. The plate was covered with a plate seal and incubated at room temperature for 1 hour. The blocked plate was washed 3× with Wash Buffer, then the final wash was removed and the plate was blotted dry. The previously prepared samples and standards were added ([…]) and the plate was covered with a plate seal and incubated at 4° C. overnight.
The prepared ELISA plate was removed from incubation and allowed to stand at room temperature for 30 minutes, then washed and blotted dry. The Second Antibody (Cell Signaling Rabbit anti-Bmi-1, Cat #2830) diluted to 1:600 in Blocking Buffer was added (100 μL) to each well, except as needed for background control wells. The plate was covered with a plate seal and incubated for 1.5 hrs at room temperature.
The ELISA plate was washed and blotted dry as previously described. The Third Antibody (Cell Signaling HRP conjugated anti-rabbit IgG (CellSignaling, Cat #:7074) diluted to 1:300 in Blocking Buffer was added (100 μL) to each well, except as needed for background control wells. The plate was incubated for 1 hr at room temperature.
The plate was washed and blotted dry, then a previously prepared TMB substrate (TMB substrate kit, Pierce catalog #34021) (prepared by mixing kit reagents 1:1) (100 μL) was added per well. The plate was incubated for 20-30 minutes at room temperature in the dark, then Stop Solution (2 M sulfuric acid in water) (50 μL) was added per well. The plates were read at OD450 (experimental) and OD570 (reference).

SMILES | EC50 [nM]
FC(F)(F)c1ccc(Nc2cccc(-n3c(C(F)(F)F)nc4ccccc43)n2)cc1 [Cpd 40, 6-[2-(trifluoromethyl)-1H-benzimidazol-1-yl]-N-[4-(trifluoromethyl)phenyl]pyridin-2-amine] | 100 to 3000
N#Cc1ccc(Nc2cccc(-c3c(C(F)(F)F)nc4ccccn34)n2)cc1 [Cpd 50, 4-({6-[2-(trifluoromethyl)imidazo[1,2-a]pyridin-3-yl]pyridin-2-yl}amino)benzonitrile] | 10 to 100
FC(F)(F)c1ccc(Nc2cncc(-c3c(C(F)(F)F)nc4ccccn34)n2)cn1 [Cpd 70, 6-[2-(trifluoromethyl)imidazo[1,2-a]pyridin-3-yl]-N-[6-(trifluoromethyl)pyridin-3-yl]pyrazin-2-amine] | 10 to 100
FC(F)(F)c1ccc(Nc2cccc(-c3c(C(F)(F)F)nc4ccccn34)n2)cn1 [Cpd 71, 6-[2-(trifluoromethyl)imidazo[1,2-a]pyridin-3-yl]-N-[6-(trifluoromethyl)pyridin-3-yl]pyridin-2-amine] | 1 to 10
COc1cc(Nc2ccc(C(F)(F)F)cc2)nc(-c2c(C(=O)O)nc3ccccn23)c1 [Cpd 124, 3-(4-methoxy-6-{[4-(trifluoromethyl)phenyl]amino}pyridin-2-yl)imidazo[1,2-a]pyridine-2-carboxylic acid] | 10 to 100
Cc1nc2ccccc2n1-c1cc(C#N)cc(Nc2ccc(OC(F)F)cc2)n1 [Cpd 135, 2-{[4-(difluoromethoxy)phenyl]amino}-6-(2-methyl-1H-benzimidazol-1-yl)pyridine-4-carbonitrile] | 10 to 100
Cc1nc2ccccc2n1-c1cc(C#N)cc(Nc2ccc(OC(F)(F)F)cc2)n1 [Cpd 136, 2-(2-methyl-1H-benzimidazol-1-yl)-6-{[4-(trifluoromethoxy)phenyl]amino}pyridine-4-carbonitrile] | 10 to 100

The remaining lines, values ahead:

EC50 [nM] | SMILES
10 to 100 | COc1ccc2nc(C(F)(F)F)c(-c3cncc(Nc4ccc(OC(F)(F)F)cc4)n3)n2c1 [Cpd 45, 6-[6-methoxy-2-(trifluoromethyl)imidazo[1,2-a]pyridin-3-yl]-N-[4-(trifluoromethoxy)phenyl]pyrazin-2-amine]
10 to 100 | COc1ccc2nc(C(F)(F)F)c(-c3cncc(Nc4ccc(C(F)(F)F)cc4)n3)n2c1 [Cpd 46, 6-[6-methoxy-2-(trifluoromethyl)imidazo[1,2-a]pyridin-3-yl]-N-[4-(trifluoromethyl)phenyl]pyrazin-2-amine]
1 to 10 | COc1ccc(Nc2cncc(-c3c(C(F)(F)F)nc4ccc(OC)cn34)n2)cc1 [Cpd 47, N-(4-methoxyphenyl)-6-[6-methoxy-2-(trifluoromethyl)imidazo[1,2-a]pyridin-3-yl]pyrazin-2-amine]
1 to 10 | COc1ccc2nc(C(F)(F)F)c(-c3cncc(Nc4ccc(OC(F)F)cc4)n3)n2c1 [Cpd 48, N-[4-(difluoromethoxy)phenyl]-6-[6-methoxy-2-(trifluoromethyl)imidazo[1,2-a]pyridin-3-yl]pyrazin-2-amine]
100 to 3000 | COc1ccc2nc(C(F)(F)F)c(-c3cncc(Nc4ccc(C#N)cc4)n3)n2c1 [Cpd 49, 4-({6-[6-methoxy-2-(trifluoromethyl)imidazo[1,2-a]pyridin-3-yl]pyrazin-2-yl}amino)benzonitrile]
10 to 100 | Fc1ccc2nc(C(F)(F)F)c(-c3cncc(Nc4ccc(OC(F)(F)F)cc4)n3)n2c1 [Cpd 55, 6-[6-fluoro-2-(trifluoromethyl)imidazo[1,2-a]pyridin-3-yl]-N-[4-(trifluoromethoxy)phenyl]pyrazin-2-amine]
1 to 10 | Fc1ccc2nc(C(F)(F)F)c(-c3cncc(Nc4ccc(OC(F)F)cc4)n3)n2c1 [Cpd 56, N-[4-(difluoromethoxy)phenyl]-6-[6-fluoro-2-(trifluoromethyl)imidazo[1,2-a]pyridin-3-yl]pyrazin-2-amine]
< 1 | COc1ccc(Nc2cncc(-c3c(C(F)(F)F)nc4ccc(F)cn34)n2)cc1 [Cpd 57, 6-[6-fluoro-2-(trifluoromethyl)imidazo[1,2-a]pyridin-3-yl]-N-(4-methoxyphenyl)pyrazin-2-amine]
1 to 10 | Fc1ccc2nc(C(F)(F)F)c(-c3cncc(Nc4ccc(C(F)(F)F)cc4)n3)n2c1 [Cpd 58, 6-[6-fluoro-2-(trifluoromethyl)imidazo[1,2-a]pyridin-3-yl]-N-[4-(trifluoromethyl)phenyl]pyrazin-2-amine]
100 to 3000 | O=[N+]([O-])c1ccc(Nc2cncc(-c3c(C(F)(F)F)nc4ccccn34)n2)cc1 [Cpd 59, N-(4-nitrophenyl)-6-[2-(trifluoromethyl)imidazo[1,2-a]pyridin-3-yl]pyrazin-2-amine]
10 to 100 | Nc1ccc(Nc2cncc(-c3c(C(F)(F)F)nc4ccccn34)n2)cc1 [Cpd 60, N-{6-[2-(trifluoromethyl)imidazo[1,2-a]pyridin-3-yl]pyrazin-2-yl}benzene-1,4-diamine]
100 to 3000 | FC(F)(F)Oc1ccc(Nc2cncc(-c3c(C(F)(F)F)nc4ncccn34)n2)cc1 [Cpd 100, N-[4-(trifluoromethoxy)phenyl]-6-[2-(trifluoromethyl)imidazo[1,2-a]pyrimidin-3-yl]pyrazin-2-amine]
100 to 3000 | COc1cc(Nc2ccc(C(F)(F)F)cc2)nc(-c2c(C(F)(F)F)nc3ccccn23)c1 [Cpd 107, 4-methoxy-6-[2-(trifluoromethyl)imidazo[1,2-a]pyridin-3-yl]-N-[4-(trifluoromethyl)phenyl]pyridin-2-amine]
10 to 100 | FC(F)Oc1ccc(Nc2cncc(-c3c(C(F)(F)F)nc4ncccn34)n2)cc1 [Cpd 109, N-[4-(difluoromethoxy)phenyl]-6-[2-(trifluoromethyl)imidazo[1,2-a]pyrimidin-3-yl]pyrazin-2-amine]
100 to 3000 | COc1cc(Nc2ccc(OC(F)F)cc2)nc(-c2c(C(F)(F)F)nc3ccccn23)c1 [Cpd 125, N-[4-(difluoromethoxy)phenyl]-4-methoxy-6-[2-(trifluoromethyl)imidazo[1,2-a]pyridin-3-yl]pyridin-2-amine]

Same assay, conditions: read-out: ELISA EC50 value for Bmi-1 protein, Table 1, Bmi-1 sandwich ELISA

SMILES | EC50 [nM]
COc1ccc(Nc2cc(C#N)cc(-c3c(C(F)(F)F)nc4ccccn34)n2)cc1 [Cpd 42, 2-[(4-methoxyphenyl)amino]-6-[2-(trifluoromethyl)imidazo[1,2-a]pyridin-3-yl]pyridine-4-carbonitrile] | 1 to 10
FC(F)(F)c1ccc(Nc2cccc(-c3c(C(F)(F)F)nc4ncccn34)n2)cc1 [Cpd 64, 6-[2-(trifluoromethyl)imidazo[1,2-a]pyrimidin-3-yl]-N-[4-(trifluoromethyl)phenyl]pyridin-2-amine] | 10 to 100
FC(F)(F)c1ccc(Nc2cncc(-c3c(C(F)(F)F)nc4ncccn34)n2)cc1 [Cpd 67, 6-[2-(trifluoromethyl)imidazo[1,2-a]pyrimidin-3-yl]-N-[4-(trifluoromethyl)phenyl]pyrazin-2-amine] | 10 to 100
Cc1nc2ccccc2n1-c1cc(C#N)cc(Nc2ccc(C(F)(F)F)cc2)n1 [Cpd 132, 2-(2-methyl-1H-benzimidazol-1-yl)-6-{[4-(trifluoromethyl)phenyl]amino}pyridine-4-carbonitrile] | 10 to 100
NC(=O)c1cc(Nc2ccc(C(F)(F)F)cc2)nc(-c2c(C(F)(F)F)nc3ccccn23)c1 [Cpd 189, 2-[2-(trifluoromethyl)imidazo[1,2-a]pyridin-3-yl]-6-{[4-(trifluoromethyl)phenyl]amino}pyridine-4-carboxamide] | 10 to 100

From US10584115B2, “Substituted pyridine and pyrazine BMI-1 inhibitors” (PTC Therapeutics, Inc., priority 2013, dated 2020)
